According to patent US6905852B1, “Herbicide-resistant protoporphyrinogen oxidase isolated from Nicotiana tabacum” (Nihon Nohyaku Co., Ltd., priority 1997, dated 2005):
In brackets after ≈: the same amount, converted by molar mass.

How the values were obtained:
[1] = test system: ETR-253; assay: MIC on MS agar medium, cross-resistance to herbicides; type: cell-based, Nicotiana tabacum
Excerpt: (§1) Further, cross-resistance of a resistant strain tolerant to herbicides with various modes of action was examined. Sensitivity to fomesafen (trade mark: FLEX) and oxadiazon (trade mark: RONSTAR), which are photobleaching herbicide and accumulate protoporphyrin IX; pyrazoxyfen (trademark: PAICER) which is a chlorophyll synthesis inhibitor and causes bleaching; DPX-84 and bialaphos (trademark: BASTA) and glyphosate (trademark: ROUNDUP) which are an inhibitor of the amino acid synthesis; butachlor (trademark: MACHETE) which is a protein synthesis inhibitor; propanil (trademark: STAM) which is an inhibitor of light synthesis photochemical system II and paraquat (trademark: PREEGLOX) which is an inhibitor of photosystem I and produces an active oxygen was compared. Into MS agar medium containing each herbicides, each resistant strain was transplanted and minimum inhibition concentration (MIC) was measured. […] From the above results, ETR-056 was thought to have resistance to an active oxygen caused by overproduction of superoxide dismutase, and ETR-253 was thought to have resistance to many herbicides caused by decreasing of a membrane permeability, and ETR-245 was thought to have resistance caused by mutation of a target enzyme or overproduction of a target enzyme.
(§2) MIC of compound A to the sensitive cell lines, ETR-056, ETR-245 and ETR-253 were measured.

[2] = test system: Sensitive strain; assay: as above; type: cell-based, Nicotiana tabacum; details: sensitive cell line
Excerpt: as §1, §2

[3] = test system: ETR-245; assay: as above; type: cell-based, Nicotiana tabacum
Excerpt: as §1, §2

[4] = test system: ETR-056; assay: as above; type: cell-based, Nicotiana tabacum
Excerpt: as §1, §2

[5] = biological target: T1, protoporphyrinogen oxidase extracted from ETR-245 (Nicotiana tabacum, UniProt O24163, A231V); assay: Protoporphyrinogen oxidase activity of crude enzyme preparation; type: biochemical
T1 construct: from tissue; host or cells: tobacco callus, herbicide-tolerant cell line ETR-245; crude particulate fraction
T1 sequence (O24163 51-548 A231V): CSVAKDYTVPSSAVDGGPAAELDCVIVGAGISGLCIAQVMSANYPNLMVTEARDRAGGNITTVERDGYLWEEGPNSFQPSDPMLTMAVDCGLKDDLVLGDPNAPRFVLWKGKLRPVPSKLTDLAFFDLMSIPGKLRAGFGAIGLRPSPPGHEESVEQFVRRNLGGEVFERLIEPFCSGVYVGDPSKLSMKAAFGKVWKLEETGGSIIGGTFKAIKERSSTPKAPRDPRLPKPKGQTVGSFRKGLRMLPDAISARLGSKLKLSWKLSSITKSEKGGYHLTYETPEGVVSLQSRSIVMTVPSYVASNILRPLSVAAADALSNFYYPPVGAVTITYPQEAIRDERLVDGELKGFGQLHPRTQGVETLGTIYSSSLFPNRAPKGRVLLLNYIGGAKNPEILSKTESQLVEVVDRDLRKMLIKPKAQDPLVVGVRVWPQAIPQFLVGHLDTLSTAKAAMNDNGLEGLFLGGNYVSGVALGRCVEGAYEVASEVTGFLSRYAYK
Experimental: (§3) Using the same procedures described in Nicolaus, B. et al. (1993) in “Target Assay for Modern Herbicide and Related Phytotoxic Compound” Lewis Publishers, pp. 35-41, five volume of extraction buffer (50 mM Tris-HCl (pH 7.5), 0.5 M sucrose, 0.2% BSA, 1 mM EDTA) was added to callus which was cultured in MS solid medium for one month, and homogenized. After filtration with gauze, filtrate was centrifuged with 10,000×g at 4° C. for 5 minutes. Thus obtained precipitate was suspended with 25 ml of ethanol buffer, centrifuged with 150×g at 4° C. for 2 minutes. Thus obtained supernatant was centrifuged with 4,000×g at 4° C. for 15 minutes, and the precipitate was dissolved with 2 ml of 20% glycerol. The protein amount in the obtained crude enzyme preparation was measured with the protein measuring kit (manufactured by Bio-Rad Co., Ltd.).
(§4) The powder of sodium amalgam was prpared as follows. Into a round flask of 500 ml volume, 13 g of mercury and 0.5 g of thin-layer metal sodium were added, and equilibrated with nitrogen gas for 5 minutes, and it was shaked for 5 minutesthen. […] of protoporphyrin IX was dissolved into 10 mM KOH containing 15 ml of 20% ethanol, incubated at 4° C. To 4 ml of the protoporphyrin IX solution, equal amount of reaction mixture (0.1 M MES, 50 mM ascorbic acid) was added, and 16 mg of sodium amalgam freshly prepared was added, and shaken vigorously under nitrogen gas in a dark. The reaction mixture was filtered with a three-layer glass filter in a dark, and diluted 2.5 times with 0.1 M MES (pH4.5), and divided into 1 ml each in a light-shielded test tube and stored at −80° C.
(§5) 3 ml of reaction buffer (100 mM Tris-HCl (pH 7.6), 1 mM EDTA, 5 mM DTT, 0.03% Tween 80) were added to a cell of a fluorescence spectrophotometer, then, the crude enzyme prparation was added at the final concentration of 0.1 mg protein/ml, and it was heated gradually to room temperature. After heating, protoporphyrinogen IX was added at the final concentration of 2 μM, and the gaseous phase was replaced with nitrogen gas, and a reaction was started. Fluorescence was monitored with a spectrophotometer for 30 minutes starting 10 minutes after the start of the reaction, and enzyme activity was measured (Ex:405 nm,Em:631.5 nm).
(§6) Activity of protoporphyrinogen oxidase in crude enzyme preparation which was extracted from a sensitive tobacco and ETR-245 and the extent of inhibition by compound A were compared (Table 4). As a result, activity of the crude enzyme preparation derived from the sensitive strain was 2.39 units, and the activity of the crude enzyme liquid derived from ETR-245 strain was 2.85 units, and there was no large difference between the activities. […] Incidentally, since the reaction mixture became turbidat the concentration of more than 5,000 nM, it was impossible to measure the fluoroescence. From the above results, the resistant mechanism in ETR-245 to the photobleaching herbicide could be thought that the some mutations in the structure of the enzyme occurred, and was not over production of protoporphyrinogen oxidase which was a target enzyme of photobleaching herbicide.

[6] = biological target: T2, protoporphyrinogen oxidase extracted from the sensitive cell line (Nicotiana tabacum, UniProt O24163, A174P/A191P/T382S); assay: as above; type: biochemical
T2 construct: from tissue; host or cells: tobacco callus, herbicide-sensitive cell line; crude particulate fraction
T2 sequence (O24163 51-548 A174P/A191P/T382S): as the sequence (O24163 51-548 A231V) above, with A124P, A141P, V181A, T332S counted along it
Experimental: as §3, §4, §5, §6

CCOC(=O)COc1cc(-c2nn(C)c(OC(F)F)c2Cl)c(F)cc1Cl [Compound A, ethyl 2-chloro-5-(4-chloro-5-difluoromethoxy-1-methyl-1H-pyrazol-3-yl)-4-fluorophenoxyacetate]
MIC [1]: over 2,400 nM
MIC [2]: 5 nM (≈ 2.07 ng/mL)
MIC [3]: over 2,400 nM
MIC [4]: over 2,400 nM
Enzyme activity(unit) ([5]; ETR-245, 10 nM, 1 unit = 1 nM protoporphyrin IX/min/mg protein): 3.59 unit
Enzyme activity(unit) ([5]; ETR-245, 40 nM): 4.41 unit
Enzyme activity(unit) ([5]; ETR-245, 100 nM): 2.21 unit
Enzyme activity(unit) ([5]; ETR-245, 500 nM): 3.49 unit
Enzyme activity(unit) ([5]; ETR-245, 1,000 nM): 2.85 unit
Enzyme activity(unit) ([5]; ETR-245, 2,400 nM): 2.48 unit
Enzyme activity(unit) ([5]; ETR-245, 5,000 nM): 1.56 unit
IC50 ([5]; IC50 value (nM), crude enzyme from ETR-245): ≥ 5000 nM
resistance at enzyme level (ETR-245 vs sensitive) ([5]; ratio of IC50 values): more than 100 times
IC50 [6]: 48 nM
Enzyme activity(unit) ([6]; Sensitive, 10 nM, 1 unit = 1 nM protoporphyrin IX/min/mg protein): 4.32 unit
Enzyme activity(unit) ([6]; Sensitive, 20 nM): 3.62 unit
Enzyme activity(unit) ([6]; Sensitive, 40 nM): 1.84 unit
Enzyme activity(unit) ([6]; Sensitive, 100 nM): 0.00 unit
Enzyme activity(unit) ([6]; Sensitive, 500 nM): 0.00 unit
Enzyme activity(unit) ([6]; Sensitive, 1,000 nM): 0.00 unit
Enzyme activity(unit) ([6]; Sensitive, 2,400 nM): 0.00 unit
Enzyme activity(unit) ([6]; Sensitive, 5,000 nM): 0.00 unit
